Results on 14 compounds are retold here after patent publication US20240092761A1, “QUINAZOLINE COMPOUNDS AND METHODS OF USE” (IAMBIC THERAPEUTICS, INC., priority 2022, published 2024).

For one assay, the target named is CDK1/Cyclin B1 (Homo sapiens (Human), UniProt P06493). Kind of assay: CDK1/Cyclin B1 ADP-Glo Kinase Assay. Format: biochemical. The note with it: 80 uM ATP. An outline of the steps:
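Luminescent ADP-Glo detection of ADP produced over 90 min at room temperature. Enzyme complex 4.917 nM, pre-exposed 30 min to inhibitor; ATP 80 µM (near Km 78.6 µM), substrate 0.75 µM, HEPES pH 7.5, 2% DMSO. Fractional velocity fitted to 4-parameter IC50 equation.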
Background: In ADP-Glo the light output rises with the ADP produced.

Assay [1] has as its target CDK2/Cyclin E1 full length (Homo sapiens (Human), UniProt P24941). Kind of assay: CDK2/Cyclin E1 Full Length ADP-Glo Kinase Assay. The assay is classed as biochemical. The note with it: 20 uM ATP, read-out: CDK2/ CyclinE1 IC50. In short, it runs like this: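 ADP-Glo luminescence read-out of ADP formed by 0.328 nM wild-type full-length CDK2/Cyclin E1, 90 min at room temperature with 0.75 uM substrate and 20 uM ATP (Km 64.78 uM), after 30 min enzyme–inhibitor pre-incubation; 50 mM HEPES pH 7.5, 2% DMSO. Four-parameter IC50 fit.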

A further assay deals with CDK4/Cyclin D1 (Homo sapiens (Human), UniProt P11802). Kind of assay: CDK4/Cyclin D1 CHEF Assay (AQT0258 peptide). The assay is classed as biochemical. To be noted: 200 uM ATP, read-out: CDK4/ CyclinD1 AQT IC50. In short, it runs like this: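 CDK4/Cyclin D1 (2.5 nM) phosphorylating 10 uM Sox-labelled peptide AQT0258 with 200 uM ATP (Km 195.2 uM), 10 mM MgCl2, 2% DMSO, 54 mM HEPES pH 7.5. Enzyme and inhibitor pre-incubated 30 min, reaction 3 hrs at 22° C.; CHEF fluorescence (ex 360/em 485 nm), IC50 from fractional velocity, 4-parameter fit.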
Chain of CDK4/Cyclin D1 (P11802 whole entry): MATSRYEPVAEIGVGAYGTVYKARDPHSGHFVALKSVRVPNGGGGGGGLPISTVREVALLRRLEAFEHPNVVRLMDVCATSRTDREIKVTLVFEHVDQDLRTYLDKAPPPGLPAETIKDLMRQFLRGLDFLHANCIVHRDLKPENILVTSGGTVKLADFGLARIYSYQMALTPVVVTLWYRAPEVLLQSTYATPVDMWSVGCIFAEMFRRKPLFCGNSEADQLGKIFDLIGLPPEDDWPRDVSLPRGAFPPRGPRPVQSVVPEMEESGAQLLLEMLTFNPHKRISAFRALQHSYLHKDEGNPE
Chain of CDK4/Cyclin D1 (P24385 whole entry partner): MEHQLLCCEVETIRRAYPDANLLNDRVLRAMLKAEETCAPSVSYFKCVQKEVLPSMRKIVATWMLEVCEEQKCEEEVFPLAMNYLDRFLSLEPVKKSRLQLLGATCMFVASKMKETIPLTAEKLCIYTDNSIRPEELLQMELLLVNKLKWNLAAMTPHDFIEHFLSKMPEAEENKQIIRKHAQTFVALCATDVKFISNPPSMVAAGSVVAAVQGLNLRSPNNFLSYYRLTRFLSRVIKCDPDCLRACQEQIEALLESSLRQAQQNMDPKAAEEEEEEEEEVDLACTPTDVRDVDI

The next assay concerns the target CDK6/Cyclin D3 (Homo sapiens (Human), UniProt Q00534). As to the kind of experiment: CDK6/Cyclin D3 ADP-Glo Kinase Assay. Format: biochemical. To be noted: 100 uM ATP, read-out: CDK6/ CyclinD3 IC50. In short, it runs like this: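 Luminescent ADP-Glo read-out of ADP produced, used to fit IC50 (4-parameter equation on fractional velocity against inhibitor concentration). Kinase reaction: enzyme and inhibitor together 30 min, then ATP-containing substrate added for 90 min, all at room temperature.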

For another assay, the system named is MCF-7 cells. Kind of assay: Cell Growth Inhibition, MCF-7 (CellTiterGlo, 6 days). Format: cell-based. The note with it: Homo sapiens, MCF7, 144 h; MCF-7, 6-day treatment, CellTiterGlo 2.0. In short, it runs like this:
(§1)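 Compounds were run in half-log series, usually 10–10,000 nM, with 500 cells/well of OVCAR-3 or MCF-7 in RPMI plus 10% FBS. After a 6-day culture at 37 °C, viability was read by CellTiterGlo luminescence. Inhibition relative to control was fitted (four-parameter, variable slope) for IC50.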

Another assay has as its system OVCAR-3 cells. Kind of assay: Cell Growth Inhibition, OVCAR-3 (CellTiterGlo, 6 days). Format: cell-based. The note with it: Homo sapiens, 144 h; OVCAR-3, 6-day treatment, CellTiterGlo 2.0. An outline of the steps: as §1

Some results are limits rather than exact numbers.

Chain of CDK6/Cyclin D3 (Q00534 whole entry): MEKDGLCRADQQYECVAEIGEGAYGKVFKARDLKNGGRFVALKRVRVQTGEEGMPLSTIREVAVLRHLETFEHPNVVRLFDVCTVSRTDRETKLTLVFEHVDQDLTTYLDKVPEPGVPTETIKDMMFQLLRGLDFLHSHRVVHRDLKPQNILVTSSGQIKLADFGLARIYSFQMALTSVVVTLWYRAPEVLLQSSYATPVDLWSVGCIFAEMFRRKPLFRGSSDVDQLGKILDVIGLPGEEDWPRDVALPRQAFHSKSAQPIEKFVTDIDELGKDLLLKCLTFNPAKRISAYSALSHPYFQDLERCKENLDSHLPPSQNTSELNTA
Chain of CDK6/Cyclin D3 (P30281 whole entry partner): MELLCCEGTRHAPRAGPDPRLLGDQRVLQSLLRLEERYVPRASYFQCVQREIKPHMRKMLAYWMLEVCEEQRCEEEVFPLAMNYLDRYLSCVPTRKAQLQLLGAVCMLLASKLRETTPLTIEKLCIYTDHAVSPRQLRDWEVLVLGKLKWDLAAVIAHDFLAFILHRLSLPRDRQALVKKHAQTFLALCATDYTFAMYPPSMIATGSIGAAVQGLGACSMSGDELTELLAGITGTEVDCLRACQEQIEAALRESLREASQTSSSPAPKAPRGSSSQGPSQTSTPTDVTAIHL
Chain of CDK1/Cyclin B1 (P06493 whole entry): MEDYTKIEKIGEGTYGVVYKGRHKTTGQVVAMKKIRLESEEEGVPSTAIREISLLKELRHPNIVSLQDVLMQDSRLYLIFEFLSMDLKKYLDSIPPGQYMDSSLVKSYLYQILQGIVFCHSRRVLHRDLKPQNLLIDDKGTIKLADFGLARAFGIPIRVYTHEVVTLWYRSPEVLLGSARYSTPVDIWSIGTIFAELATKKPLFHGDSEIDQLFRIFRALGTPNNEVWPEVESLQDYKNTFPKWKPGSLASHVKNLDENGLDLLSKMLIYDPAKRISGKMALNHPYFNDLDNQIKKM
Chain of CDK1/Cyclin B1 (P14635 whole entry partner): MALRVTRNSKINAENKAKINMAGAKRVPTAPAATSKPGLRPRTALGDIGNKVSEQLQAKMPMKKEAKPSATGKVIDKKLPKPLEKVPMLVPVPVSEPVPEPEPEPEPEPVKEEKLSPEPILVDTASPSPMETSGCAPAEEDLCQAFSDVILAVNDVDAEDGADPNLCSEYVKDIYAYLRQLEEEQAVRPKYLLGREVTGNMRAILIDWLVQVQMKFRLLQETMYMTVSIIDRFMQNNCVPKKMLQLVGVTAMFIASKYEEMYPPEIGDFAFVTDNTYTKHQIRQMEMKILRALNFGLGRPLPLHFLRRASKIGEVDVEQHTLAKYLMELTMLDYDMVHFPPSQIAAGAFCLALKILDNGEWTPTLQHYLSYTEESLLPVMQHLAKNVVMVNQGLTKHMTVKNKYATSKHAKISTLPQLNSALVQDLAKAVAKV

As for `O=S(=O)(C1CC1)N1CCC(Nc2ncc3cc(C(F)F)cc(N4CC5(CNCC5F)C4)c3n2)CC1` (stereo not drawn) [Example 104, N-(1-(cyclopropylsulfonyl)piperidin-4-yl)-6-(difluoromethyl)-8-(8-fluoro-2,6-diazaspiro[3.4]octan-2-yl)quinazolin-2-amine], the IC50 at CDK1/Cyclin B1 is less than 200 nM; in assay [1], less than 200 nM; on CDK4/Cyclin D1, less than 200 nM; on CDK6/Cyclin D3, less than 200 nM; in the assay on MCF-7 cells it was 200 to 500 nM; in the assay on OVCAR-3 cells, 200 to 500 nM.

As for `CS(=O)(=O)N1CCC(Nc2ncc3cc(C(F)F)cc(C4CC5(CCN(CC(F)(F)CO)C5)C4)c3n2)CC1` (stereo not drawn) [Example 106, 3-(2-(6-(difluoromethyl)-2-((1-(methylsulfonyl)piperidin-4-yl)amino)quinazolin-8-yl)-6-azaspiro[3.4]octan-6-yl)-2,2-difluoropropan-1-ol], the IC50 at CDK1/Cyclin B1 is less than 200 nM; in assay [1] it was less than 200 nM; on CDK4/Cyclin D1, less than 200 nM; on CDK6/Cyclin D3, less than 200 nM; with MCF-7 cells, 500 to 2000 nM; with OVCAR-3 cells it was 500 to 2000 nM.

As for `CN1CC2(CCN(c3cc(C(F)F)cc4cnc(NC5CCN(c6ncc(C7CC7)cn6)CC5)nc34)C2)C1` [Example 64, N-(1-(5-cyclopropylpyrimidin-2-yl)piperidin-4-yl)-6-(difluoromethyl)-8-(2-methyl-2,6-diazaspiro[3.4]octan-6-yl)quinazolin-2-amine], the IC50 against CDK1/Cyclin B1 was greater than 2000 nM; in assay [1] it was 500 to 2000 nM; on CDK4/Cyclin D1 it was less than 200 nM; on CDK6/Cyclin D3, greater than 2000 nM; with MCF-7 cells, 500 to 2000 nM; in the assay on OVCAR-3 cells, greater than 2000 nM.

Regarding `CS(=O)(=O)N1CCC(Nc2ncc3cc(C(F)F)cc(C4CC5(CCNC5)C4)c3n2)CC1` (stereo not drawn) [Example 70, 6-(difluoromethyl)-N-(1-(methylsulfonyl)piperidin-4-yl)-8-(6-azaspiro[3.4]octan-2-yl)quinazolin-2-amine], the IC50 is less than 200 nM on CDK1/Cyclin B1; less than 200 nM in assay [1]; less than 200 nM at CDK4/Cyclin D1; less than 200 nM at CDK6/Cyclin D3; 200 to 500 nM with MCF-7 cells; 200 to 500 nM in the assay on OVCAR-3 cells.

As to `CS(=O)(=O)N1CCC(Nc2ncc3cc(C(F)F)cc(N4CC5(C4)CN(C4CC4)C5)c3n2)CC1` [Example 69, 8-(6-cyclopropyl-2,6-diazaspiro[3.3]heptan-2-yl)-6-(difluoromethyl)-N-(1-(methylsulfonyl)piperidin-4-yl)quinazolin-2-amine], the IC50 at CDK1/Cyclin B1 is 200 to 500 nM; in assay [1] it was less than 200 nM; on CDK4/Cyclin D1, less than 200 nM; at CDK6/Cyclin D3 it was less than 200 nM; with MCF-7 cells it was 200 to 500 nM; in the assay on OVCAR-3 cells it was 500 to 2000 nM.

In the case of `CS(=O)(=O)N1CCC(Nc2ncc3cc(C(F)F)cc(N4CC5(CNCC5(F)F)C4)c3n2)CC1` [Example 115, 8-(8,8-difluoro-2,6-diazaspiro[3.4]octan-2-yl)-6-(difluoromethyl)-N-(1-(methylsulfonyl)piperidin-4-yl)quinazolin-2-amine], the IC50 on CDK1/Cyclin B1 was less than 200 nM; in assay [1], less than 200 nM; at CDK4/Cyclin D1, less than 200 nM; at CDK6/Cyclin D3, less than 200 nM; with MCF-7 cells, 500 to 2000 nM; in the assay with OVCAR-3 cells it was 500 to 2000 nM.

Turning to `COCCN1CC2(C1)CN(c1cc(C(F)F)cc3cnc(NC4CCN(S(=O)(=O)C5CC5)CC4)nc13)C2` [Example 76, N-(1-(cyclopropylsulfonyl)piperidin-4-yl)-6-(difluoromethyl)-8-(6-(2-methoxyethyl)-2,6-diazaspiro[3.3]heptan-2-yl)quinazolin-2-amine], the IC50 on CDK1/Cyclin B1 is 500 to 2000 nM; in assay [1], less than 200 nM; on CDK4/Cyclin D1, less than 200 nM; at CDK6/Cyclin D3, less than 200 nM; in the assay with MCF-7 cells, 500 to 2000 nM; with OVCAR-3 cells, 500 to 2000 nM.

Turning to `CS(=O)(=O)N1CCC(Nc2ncc3cccc(C4CC5(CCNC5)C4)c3n2)CC1` (stereo not drawn) [Example 99, N-(1-(methylsulfonyl)piperidin-4-yl)-8-(6-azaspiro[3.4]octan-2-yl)quinazolin-2-amine], the IC50 at CDK1/Cyclin B1 was less than 200 nM; in assay [1], less than 200 nM; on CDK4/Cyclin D1, less than 200 nM; on CDK6/Cyclin D3, less than 200 nM; with MCF-7 cells, 500 to 2000 nM; in the assay with OVCAR-3 cells it was 200 to 500 nM.

Regarding `O=S(=O)(CC1CC1)N1CCC(Nc2ncc3cc(C(F)F)cc(N4CC5(CCNC5)C4)c3n2)CC1` [Example 85, N-(1-((cyclopropylmethyl)sulfonyl)piperidin-4-yl)-6-(difluoromethyl)-8-(2,6-diazaspiro[3.4]octan-2-yl)quinazolin-2-amine], the IC50 is less than 200 nM against CDK1/Cyclin B1; less than 200 nM in assay [1]; less than 200 nM at CDK4/Cyclin D1; less than 200 nM on CDK6/Cyclin D3; 200 to 500 nM with MCF-7 cells; 200 to 500 nM with OVCAR-3 cells.

Consider `O=S(=O)(C1CC1)N1CCC(Nc2ncc3cc(C(F)F)cc(N4CC5(C4)CN(C4CC4)C5)c3n2)CC1` [Example 78, 8-(6-cyclopropyl-2,6-diazaspiro[3.3]heptan-2-yl)-N-(1-(cyclopropylsulfonyl)piperidin-4-yl)-6-(difluoromethyl)quinazolin-2-amine], for which the IC50 against CDK1/Cyclin B1 was 200 to 500 nM; in assay [1], less than 200 nM; on CDK4/Cyclin D1 it was less than 200 nM; on CDK6/Cyclin D3, less than 200 nM; in the assay on MCF-7 cells it was 500 to 2000 nM; in the assay on OVCAR-3 cells, greater than 2000 nM.

In the case of `CC1(CCS(=O)(=O)N2CCC(Nc3ncc4cc(C(F)F)cc(N5CC6(CCNC6)C5)c4n3)CC2)CC1` [Example 96, 6-(difluoromethyl)-N-(1-((2-(1-methylcyclopropyl)ethyl)sulfonyl)piperidin-4-yl)-8-(2,6-diazaspiro[3.4]octan-2-yl)quinazolin-2-amine], the IC50 against CDK1/Cyclin B1 was less than 200 nM; in assay [1], less than 200 nM; on CDK4/Cyclin D1, less than 200 nM; on CDK6/Cyclin D3, less than 200 nM; with MCF-7 cells, 500 to 2000 nM; with OVCAR-3 cells, 500 to 2000 nM.

Consider `CN1CC2(CCN(c3cc(C(F)F)cc4cnc(NC5CCN(c6ncc7ccn(C8CC8)c7n6)CC5)nc34)C2)C1` [Example 71, N-(1-(7-cyclopropyl-7H-pyrrolo[2,3-d]pyrimidin-2-yl)piperidin-4-yl)-6-(difluoromethyl)-8-(2-methyl-2,6-diazaspiro[3.4]octan-6-yl)quinazolin-2-amine], for which the IC50 against CDK1/Cyclin B1 is greater than 2000 nM; in assay [1], 200 to 500 nM; at CDK4/Cyclin D1 it was less than 200 nM; on CDK6/Cyclin D3 it was 500 to 2000 nM; with MCF-7 cells, 500 to 2000 nM; in the assay on OVCAR-3 cells, 500 to 2000 nM.

As for `CS(=O)(=O)N1CCC(Nc2ncc3cc(C(F)(F)F)cc(C4CC(O)(C5CC5)C4)c3n2)CC1` (stereo not drawn) [Example 114, 1-cyclopropyl-3-(2-((1-(methylsulfonyl)piperidin-4-yl)amino)-6-(trifluoromethyl)quinazolin-8-yl)cyclobutan-1-ol], the IC50 against CDK1/Cyclin B1 is less than 200 nM; in assay [1], less than 200 nM; at CDK4/Cyclin D1, less than 200 nM; at CDK6/Cyclin D3, less than 200 nM; with MCF-7 cells, greater than 2000 nM; with OVCAR-3 cells, greater than 2000 nM.

Regarding `O=S(=O)(N1CCC(Nc2ncc3cccc(N4CC5(CNCCC5(F)F)C4)c3n2)CC1)C1(C(F)F)CC1` [Example 105, 8-(9,9-difluoro-2,6-diazaspiro[3.5]nonan-2-yl)-N-(1-((1-(difluoromethyl)cyclopropyl)sulfonyl)piperidin-4-yl)quinazolin-2-amine], the IC50 against CDK1/Cyclin B1 is 200 to 500 nM; in assay [1], less than 200 nM; at CDK4/Cyclin D1, less than 200 nM; at CDK6/Cyclin D3 it was 200 to 500 nM; in the assay on MCF-7 cells it was greater than 2000 nM; in the assay with OVCAR-3 cells it was greater than 2000 nM.
